Data as given in patent US11339155B2, “2-(het)aryl-substituted fused bicyclic heterocycle derivatives as pesticides” (Bayer CropScience Aktiengesellschaft, priority 2016, dated 2022).

Tests used:
[1] = tested on: Nezara viridula; experiment: Nezara viridula spray test (NEZAVI); assay type: in vivo; conditions: 96 h, 4 dat, read-out: % efficacy
Protocol: (§1) Solvent: 52.5 parts by weight of acetone • 7 parts by weight of dimethylformamide
(§2) Emulsifier: alkylaryl polyglycol ether
(§3) To produce a suitable active compound preparation, 1 part by weight of active compound is dissolved with the specified parts by weight of solvent and made up to the desired concentration with water containing an emulsifier concentration of 1000 ppm. To produce further test concentrations, the formulation is diluted with emulsifier-containing water. If the addition of ammonium salts or/and penetrants is required, these are each added in a concentration of 1000 ppm to the formulation solution.
Barley plants (Hordeum vulgare) infected with larvae of the Southern green shield bug (Nezara viridula) are sprayed with an active compound preparation of the desired concentration.
After the desired period of time, the efficacy in % is determined. 100% means that all of the shield bugs have been killed; 0% means that none of the shield bugs have been killed.

[2] = tested on: Myzus persicae; experiment: Myzus persicae spray test (MYZUPE); assay type: in vivo; conditions: 120 h; for pest or weed control at 100 g/ha / pest or weed control at 500 g/ha: foliar, Chinese cabbage leaf discs, after 5 days, read-out: efficacy; for Emax at 20 g/ha: MYZUPE, 5 dat, read-out: % efficacy
Protocol: Solvent: 78 parts by weight of acetone • • 1.5 parts by weight of dimethylformamide
as §2
as §3, with “water.” for “water. If the addition of ammonium salts or/and penetrants is required, these are each added in a concentration of 1000 ppm to the formulation solution.”
Discs of Chinese cabbage leaves (Brassica pekinensis) infested by all stages of the green peach aphid (Myzus persicae) are sprayed with an active compound preparation of the desired concentration.
(§4) After 5 days, the efficacy in % is determined. 100% means that all the aphids have been killed; 0% means that no aphids have been killed.
(§5) Solvent: 78.0 parts by weight of acetone • • 1.5 parts by weight of dimethylformamide
After the desired period of time, the efficacy in % is determined. 100% means that all the aphids have been killed; 0% means that no aphids have been killed.

[3] = tested on: Tetranychus urticae; experiment: Tetranychus urticae spray test, OP-resistant (TETRUR); assay type: in vivo; conditions: for efficacy / Emax at 100 g/ha: 100 g/ha; for efficacy: bean leaf discs, after 6 days; for Emax at 100 g/ha / Emax at 500 g/ha: Tetranychus urticae, 144 h, TETRUR, read-out: % efficacy; for Emax at 100 g/ha: 6 dat (comparative table); for Emax at 500 g/ha: 6 dat
Protocol: as §5, §2
as §3, with “water.” for “water. If the addition of ammonium salts or/and penetrants is required, these are each added in a concentration of 1000 ppm to the formulation solution.”
Discs of bean leaves (Phaseolus vulgaris) infested with all stages of the greenhouse red spider mite (Tetranychus urticae) are sprayed with an active compound preparation of the desired concentration.
After 6 days, the efficacy in % is determined. 100% means that all the spider mites have been killed; 0% means that no spider mites have been killed.
After the desired period of time, the efficacy in % is determined. 100% means that all the spider mites have been killed; 0% means that no spider mites have been killed.

[4] = tested on: Myzus persicae; experiment: Myzus persicae oral test; assay type: in vivo; conditions: 120 h, after 5 days, read-out: efficacy
Protocol: Solvent: 100 parts by weight of acetone
To produce a suitable active compound preparation, 1 part by weight of active compound is dissolved with the stated parts by weight of solvent and made up to the desired concentration with water.
50 μl of the active compound preparation are transferred into microtitre plates and made up to a final volume of 200 μl with 150 μl of IPL41 insect medium (33%+15% sugar). Subsequently, the plates are sealed with parafilm, which a mixed population of green peach aphids (Myzus persicae) within a second microtitre plate is able to puncture and imbibe the solution.
as §4

[5] = tested on: Ctenocephalides felis; experiment: Ctenocephalides felis oral test; assay type: in vivo; conditions: 100 ppm in citrated cattle blood, adult cat fleas, after 2 days
Protocol: Solvent: dimethyl sulfoxide To produce a suitable active compound preparation, 10 mg of active compound are mixed with 0.5 ml of dimethyl sulfoxide. Dilution with citrated cattle blood gives the desired concentration. About 20 unfed adult cat fleas (Ctenocephalides felis) are placed into a chamber which is closed at the top and bottom with gauze. A metal cylinder whose bottom end is closed with parafilm is placed onto the chamber. The cylinder contains the blood/active compound preparation, which can be imbibed by the fleas through the parafilm membrane. After 2 days, the kill in % is determined. 100% means that all of the fleas have been killed; 0% means that none of the fleas have been killed.

[6] = tested on: Ctenocephalides felis; experiment: Ctenocephalides felis in vitro contact test with adult cat fleas; assay type: in vivo; conditions: 5 μg/cm^2 (=500 g/ha), after 48 h
Protocol: For the coating of the test tubes, 9 mg of active compound are first dissolved in 1 ml of acetone p.a. and then diluted to the desired concentration with acetone p.a. 250 μl of the solution are distributed homogeneously on the inner walls and the base of a 25 ml glass tube by turning and rocking on an orbital shaker (rocking rotation at 30 rpm for 2 h). With 900 ppm of active compound solution and internal surface area 44.7 cm^2, given homogeneous distribution, an area-based dose of 5 μg/cm^2 is achieved.
After the solvent has evaporated off, the tubes are populated with 5-10 adult cat fleas (Ctenocephalides felis), sealed with a perforated plastic lid and incubated in a horizontal position at room temperature and ambient humidity. After 48 h, efficacy is determined. To this end, the tubes are stood upright and the fleas are knocked to the base of the tube. Fleas which remain motionless at the base or move in an uncoordinated manner are considered to be dead or moribund.
100% efficacy means that all the fleas were dead or moribund. 0% efficacy means that no fleas were harmed.

[7] = tested on: Phaedon cochleariae; experiment: Phaedon cochleariae spray test (PHAECO); assay type: in vivo; conditions: for efficacy: larvae on Chinese cabbage leaf discs, after 7 days; for Emax at 20 g/ha: Phaedon cochleariae, 168 h, PHAECO, 7 dat, read-out: % efficacy
Protocol: as §5, §2
as §3, with “water.” for “water. If the addition of ammonium salts or/and penetrants is required, these are each added in a concentration of 1000 ppm to the formulation solution.”
After 7 days, the efficacy in % is determined. 100% means that all the beetle larvae have been killed; 0% means that no beetle larvae have been killed.
After the desired period of time, the efficacy in % is determined. 100% means that all the beetle larvae have been killed; 0% means that no beetle larvae have been killed.

[8] = log P by HPLC on reversed-phase column (EEC Directive 79/831 Annex V.A8); assay type: physicochemical; conditions: reversed-phase C18 HPLC column, C 18 reversed phase, 55° C., pH 7.8, read-out: log P (neutral)
Text: Called log P (neutral) in the table.

[9] = tested on: Lucilia cuprina; experiment: Lucilia cuprina test; assay type: in vivo; conditions: 100 ppm, L1 larvae, after 2 days
Protocol: Solvent: dimethyl sulfoxide To produce a suitable active compound preparation, 10 mg of active compound are mixed with 0.5 ml of dimethyl sulfoxide, and the concentrate is diluted with water to the desired concentration. About 20 L1 larvae of the Australian sheep blowfly (Lucilia cuprina) are transferred into a test vessel containing minced horsemeat and the active compound preparation of the desired concentration. After 2 days, the kill in % is determined. 100% means that all the larvae have been killed; 0% means that no larvae have been killed.

[10] = tested on: Meloidogyne incognita; experiment: Meloidogyne incognita test; assay type: in vivo; conditions: 20 ppm, lettuce, after 14 days
Protocol: Solvent: 125.0 parts by weight of acetone To produce a suitable active compound preparation, 1 part by weight of active compound is mixed with the stated amount of solvent and the concentrate is diluted to the desired concentration with water. Vessels are filled with sand, active compound solution, an egg/larvae suspension of the southern root-knot nematode (Meloidogyne incognita) and lettuce seeds. The lettuce seeds germinate and the plants develop. The galls develop on the roots. After 14 days, the nematicidal efficacy in % is determined by the formation of galls. 100% means that no galls were found; 0% means that the number of galls on the treated plants corresponds to the untreated control.

[11] = tested on: Nilaparvata lugens; experiment: Nilaparvata lugens spray test (NILALU); assay type: in vivo; conditions: 96 h, 4 dat, read-out: % efficacy
Protocol: as §1, §2, §3
Rice plants (Oryza sativa) are sprayed with an active compound preparation of the desired concentration and then populated with larvae of the brown planthopper (Nilaparvata lugens).
After the desired period of time, the efficacy in % is determined. 100% means that all of the planthoppers have been killed; 0% means that none of the planthoppers have been killed.

In the case of `CCS(=O)(=O)c1ccc(NC(C)=O)nc1-c1nc2cc(C(F)(F)F)ncc2n1C` [reference compound], the Emax at 20 g/ha [1] is reported as 0%.
Compound `CCS(=O)(=O)c1ccc(NC(=O)NCCS(C)(=O)=O)nc1-c1nc2cc(C(F)(F)F)ncc2n1C` [Example I-8] has a pest or weed control at 100 g/ha [2] of 90%, an efficacy [3] of 100% and a pest or weed control at 4 ppm [4] of 90%. For the same compound, the pest or weed control at 20 ppm [4] was 100% and the “efficacy (kill in %)” value [5] was 100%.
Work on `CCS(=O)(=O)c1ccc(NC(=O)NC)nc1-c1nc2cc(C(F)(F)F)ncc2n1C` [Example I-4, 1-[5-Ethylsulfonyl-6-[3-methyl-6-(trifluoromethyl)imidazo[4,5-c]pyridin-2-yl]-2-pyridyl]-3-methylurea] yielded an efficacy [6] of 100%, an Emax at 20 g/ha [1] of 100% and an efficacy ([7]; 500 g/ha) of 100%. For the same compound, the pest or weed control at 500 g/ha [2] was 90%, the chromatographic logP [8] was 1.83 and the “efficacy (kill in %)” value [9] was 100%. The “efficacy (kill in %)” value [5] was 100%.
With `CCS(=O)(=O)c1ccc(NC(=O)NCCOC)nc1-c1nc2cc(C(F)(F)F)ncc2n1C` [Example I-5] the pest or weed control at 500 g/ha [2] was 100%, the “nematicidal efficacy (formation of galls)” value (“nematicidal efficacy” for short) [10] was 100% and the pest or weed control at 4 ppm [4] was 100%. The pest or weed control at 20 ppm [4] was 100%, the “efficacy (kill in %)” value [9] was 100% and the “efficacy (kill in %)” value [5] was 80%.
With `CCS(=O)(=O)c1ccc(NC(=O)N(C)C)nc1-c1nc2cc(C(F)(F)F)ncc2n1C` [Example I-15] the efficacy ([7]; 100 g/ha) was 100%, the pest or weed control at 100 g/ha [2] was 90% and the “nematicidal efficacy” value [10] was 100%. The pest or weed control at 4 ppm [4] was 100%.
With `CCS(=O)(=O)c1ccc(N(C)C(=O)NC)nc1-c1nc2cc(C(F)(F)F)ncc2n1C` [Example I-12] the Emax at 20 g/ha [2] was 90%, the pest or weed control at 100 g/ha [2] was 90% and the Emax at 4 g/ha [11] was 90%.
In the case of `CCS(=O)(=O)c1ccc(NC(=O)N2CCCC2)nc1-c1nc2cc(C(F)(F)F)ncc2n1C` [Example I-14], the pest or weed control at 100 g/ha [2] is reported as 90% and the pest or weed control at 4 ppm [4] is reported as 100%.
Compound `CCNC(=O)Nc1ccc(S(=O)(=O)CC)c(-c2nc3cc(C(F)(F)F)ncc3n2C)n1` [Example I-1] has an efficacy ([7]; 500 g/ha) of 100%, an Emax at 20 g/ha [7] of 83% and a pest or weed control at 500 g/ha [2] of 90%. It also gave an efficacy [3] of 90%, an Emax at 100 g/ha [3] of 90% and an Emax at 500 g/ha [3] of 90%. The “nematicidal efficacy” value [10] was 100% and the “efficacy (kill in %)” value [5] was 100%.
In the case of `CCS(=O)(=O)c1ccc(NC(=O)NCCC#N)nc1-c1nc2cc(C(F)(F)F)ncc2n1C` [Example I-2], the pest or weed control at 500 g/ha [2] is reported as 90%, the “nematicidal efficacy” value [10] is reported as 100% and the pest or weed control at 4 ppm [4] is reported as 100%. The pest or weed control at 20 ppm [4] was 100% and the “efficacy (kill in %)” value [5] was 100%.
`CCS(=O)(=O)c1ccc(NC(=O)NCCSC)nc1-c1nc2cc(C(F)(F)F)ncc2n1C` [Example I-6] gave an efficacy ([7]; 100 g/ha) of 100%, a pest or weed control at 100 g/ha [2] of 90% and an efficacy [3] of 70%. The pest or weed control at 4 ppm [4] was 100% and the pest or weed control at 20 ppm [4] was 100%.
For `CCS(=O)(=O)c1ccc(N(C)C(C)=O)nc1-c1nc2cc(C(F)(F)F)ncc2n1C` [Example No. 69 known from WO 2016/124557, reference compound], the Emax at 20 g/ha [2] was 0% and the Emax at 4 g/ha [11] was 0%.
In the case of `CCS(=O)(=O)c1ccc(NC(=O)NCC[S+](C)[O-])nc1-c1nc2cc(C(F)(F)F)ncc2n1C` (stereo not shown) [Example I-3], the pest or weed control at 100 g/ha [2] is reported as 100%, the efficacy [3] is reported as 100% and the “nematicidal efficacy” value [10] is reported as 90%. For the same compound, the pest or weed control at 4 ppm [4] was 100%, the pest or weed control at 20 ppm [4] was 100% and the “efficacy (kill in %)” value [5] was 100%.
Work on `CCS(=O)(=O)c1ccc(NC(=O)n2cc(Br)cn2)nc1-c1nc2cc(C(F)(F)F)ncc2n1C` [Example I-13] yielded a pest or weed control at 100 g/ha [2] of 90% and a pest or weed control at 4 ppm [4] of 90%.
In the case of `CCC(=O)Nc1ccc(S(=O)(=O)CC)c(-c2nc3cc(C(F)(F)F)ncc3n2C)n1` [Example No. 13 known from WO 2016/124557, reference compound], the Emax at 20 g/ha [7] is reported as 50%, the Emax at 100 g/ha [3] is reported as 0% and the Emax at 500 g/ha [3] is reported as 70%.
For `CCS(=O)(=O)c1ccc(NC(=O)NC(C)C)nc1-c1nc2cc(C(F)(F)F)ncc2n1C` [Example I-7], the “nematicidal efficacy” value [10] was 90% and the “efficacy (kill in %)” value [5] was 100%.
